The results in this text go back to ChEMBL document CHEMBL3046589, “Synthesis and Fungicidal Activities of (-Methoxybenzyl) isoxazoles” (2000).

Assay type in all cases: functional
Experiment [1] has as its system Podosphaera fuliginea. The experiment is described as follows: Curative fungicidal activity against Podosphaera fuliginea infected cucumber leaves at 31.3 ppm after by foliar application method.
Experiment [2] has as its system Podosphaera fuliginea. The experiment is described as follows: Curative fungicidal activity against Podosphaera fuliginea infected cucumber leaves at 7.8 ppm after by foliar application method.
In experiment [3] the test system is Pseudoperonospora cubensis. As to the kind of experiment: Curative fungicidal activity against Pseudoperonospora cubensis infected cucumber leaves at 7.8 ppm after by foliar application method.
Experiment [4] deals with Myzus persicae. The experiment is described as follows: Insecticidal activity against Myzus persicae (green peach aphid) nymphs fed with Chinese cabbage leaf assessed as mortality at 250 ppm applied through spraying measured after 48 hr.
Experiment [5] deals with Podosphaera fuliginea. As to the kind of experiment: Preventive fungicidal activity against Podosphaera fuliginea infected cucumber leaves at 7.8 ppm after by foliar application method.
Experiment [6] deals with Pseudoperonospora cubensis. The experiment is described as follows: Preventive fungicidal activity against Pseudoperonospora cubensis infected cucumber leaves at 31.3 ppm after by foliar application method.
For experiment [7], the system named is Myzus persicae. The experiment is described as follows: Insecticidal activity against Myzus persicae (green peach aphid) nymphs fed with chinese cabbage leaf assessed as mortality at 15.6 ppm applied through spraying measured after 48 hr.
In experiment [8] the test system is Myzus persicae. As to the kind of experiment: Insecticidal activity against Myzus persicae (green peach aphid) nymphs fed with Chinese cabbage leaf assessed as mortality at 62.5 ppm applied through spraying measured after 48 hr.
Experiment [9] has as its system Pseudoperonospora cubensis. The experiment is described as follows: Curative fungicidal activity against Pseudoperonospora cubensis infected cucumber leaves at 31.3 ppm after by foliar application method.
Experiment [10] deals with Podosphaera fuliginea. The experiment is described as follows: Preventive fungicidal activity against Podosphaera fuliginea infected cucumber leaves at 31.3 ppm after by foliar application method.
Experiment [11] relates to Pseudoperonospora cubensis. The experiment is described as follows: Preventive fungicidal activity against Pseudoperonospora cubensis infected cucumber leaves at 7.8 ppm after by foliar application method.
Experiment [12] has as its system Pseudoperonospora cubensis. As to the kind of experiment: Preventive fungicidal activity against Pseudoperonospora cubensis infected cucumber leaves at 500 ppm after by foliar application method.
The subject of experiment [13] is Podosphaera fuliginea. As to the kind of experiment: Preventive fungicidal activity against Podosphaera fuliginea infected cucumber leaves at 125 ppm after by foliar application method.
For experiment [14], the system named is Podosphaera fuliginea. As to the kind of experiment: Preventive fungicidal activity against Podosphaera fuliginea infected cucumber leaves at 500 ppm after by foliar application method.
Experiment [15] has as its system Pseudoperonospora cubensis. As to the kind of experiment: Preventive fungicidal activity against Pseudoperonospora cubensis infected cucumber leaves at 125 ppm after by foliar application method.
The subject of the next experiment is Botrytis cinerea. As to the kind of experiment: Preventive fungicidal activity against Botryotinia fuckeliana infected cucumber leaves at 500 ppm after by foliar application method.

By mortality is commonly meant the share of the test organisms that died. On to `COC(c1cc(C)no1)c1ccccc1/C=N/N=C(\C)c1ccc(Cl)c(Cl)c1` (stereo not drawn), for which the Activity in the experiment on Podosphaera fuliginea [1] is 70%; with Podosphaera fuliginea [2], 30%; in [3], 100%; in the experiment on Podosphaera fuliginea [5] it was 100%; in experiment [6] it was 70%; in experiment [9], 100%. The figures for the Activity (in the experiment on Podosphaera fuliginea [10]; in [11]) were 100% and 30%, respectively. The mortality at 250 ppm in the experiment on Myzus persicae [4] was found to be 3%. Also, in the experiment with Myzus persicae [7], the mortality at 15.6 ppm turned out to be 0%. In addition, in the experiment with Myzus persicae [8], the mortality at 62.5 ppm was found to be 3%.

As for `CO/N=C(\c1ccon1)c1ccccc1COc1cc(C)ccc1C`, the Activity is 0% in the experiment with Podosphaera fuliginea [1]; 0% in the experiment with Podosphaera fuliginea [2]; 100% in experiment [3]; 100% with Podosphaera fuliginea [5]; 0% in experiment [6]; 100% in experiment [9]. Moreover, the figures for the Activity (in the experiment on Podosphaera fuliginea [10]; in [11]) were 100% and 0%, respectively.

With `COC(c1cc(C)no1)c1ccccc1/C=N/N=C(\C)c1cccc(Cl)c1` (stereo not drawn), the Activity in experiment [12] was 50%.

Consider `COC(c1cc(C)no1)c1ccccc1/C=N/N=C(\C)c1ccc(F)cc1` (stereo not drawn), for which the Activity in experiment [12] was determined as 50%; in the experiment on Podosphaera fuliginea [13] it was 90%.

For the molecule `COC(c1cc(C)no1)c1ccccc1/C=N/N=C(\C)c1ccccc1Br` (stereo not drawn), the Activity in [12] came out at 50%; in the experiment with Podosphaera fuliginea [14] it was 90%.

With `COC(c1cc(C)no1)c1ccccc1/C=N/N=C(\C)c1ccc(Br)cc1` (stereo not drawn), the Activity with Podosphaera fuliginea [1] came to 70%; in the experiment on Podosphaera fuliginea [2], 50%; in [3] it was 100%; in the experiment with Podosphaera fuliginea [5], 100%; in [6], 70%; in experiment [9], 100%. The Activity with Podosphaera fuliginea [10] turned out to be 100%; in experiment [11], 50%.

On to `COC(c1cc(C)no1)c1ccccc1/C=N/N=C(\C)c1ccc(C)cc1` (stereo not drawn), for which the Activity in experiment [12] is 50%; in the experiment with Podosphaera fuliginea [10] it was 90%.

Take `COc1ccc(/C(C)=N/N=C/c2ccccc2C(OC)c2cc(C)no2)cc1` (stereo not drawn): the Activity in experiment [15] is listed as 50%; in the experiment with Podosphaera fuliginea [13] it was 90%.

For `COC(c1cc(C)no1)c1ccccc1/C=N/N=C(\C)c1ccc(C(F)(F)F)cc1` (stereo not drawn), in the experiment on Myzus persicae [4], the mortality at 250 ppm came to 2%. For the same molecule, the Activity turned out to be 90% in the experiment on Podosphaera fuliginea [5] and 50% in [6]. Also, in the experiment on Myzus persicae [7], the mortality at 15.6 ppm worked out at 0%. For the same molecule, the mortality at 62.5 ppm in the experiment with Myzus persicae [8] stood at 1%.

With `COC(c1cc(C)no1)c1ccccc1/C=N/N=C(\C)c1ccc(OC(F)(F)F)cc1` (stereo not drawn), the Activity worked out at 45% in the experiment on Podosphaera fuliginea [1]; 0% in the experiment with Podosphaera fuliginea [2]; 100% in [3]; 100% in the experiment with Podosphaera fuliginea [5]; 60% in experiment [6]; 100% in experiment [9]. Further, the results for the Activity (with Podosphaera fuliginea [10]; in [11]) were 100% and 50%, respectively.

Take `COC(c1cc(C)no1)c1ccccc1/C=N/N=C(\C)c1ccc(Cl)cc1Cl` (stereo not drawn): the Activity in experiment [12] came out at 50%; with Podosphaera fuliginea [10], 90%.

Take `COC(c1ccon1)c1ccccc1COc1cc(C)ccc1C` (stereo not drawn): the Activity in the experiment on Botrytis cinerea amounted to 50%; in experiment [12] it was 50%; in the experiment on Podosphaera fuliginea [10], 90%.

For the molecule `COC(c1cc(C)on1)c1ccccc1COc1cc(C)ccc1C` (stereo not drawn), the Activity in the experiment on Botrytis cinerea is recorded as 50%; in experiment [12] it was 50%; in the experiment with Podosphaera fuliginea [10], 90%.

Take `COC(c1cc(C)no1)c1ccccc1COc1cc(C)ccc1C` (stereo not drawn): the figures for the Activity (in the experiment on Botrytis cinerea; in experiment [12]; with Podosphaera fuliginea [5]) were 50%, 50% and 90%, respectively.

For `COC(c1ccccc1COc1cc(C)ccc1C)c1c(C)noc1C` (stereo not drawn), the Activity in the experiment with Botrytis cinerea stood at 50%; in experiment [12], 50%; with Podosphaera fuliginea [14], 90%.

Regarding `COC(C1=NOCC1)c1ccccc1COc1cc(C)ccc1C` (stereo not drawn), the Activity came to 50% in the experiment on Botrytis cinerea, 50% in [12] and 90% in the experiment with Podosphaera fuliginea [13].

As for `COC(c1ccccc1COc1cc(C)ccc1C)C1CC(C)=NO1` (stereo not drawn), the Activity with Botrytis cinerea amounted to 50%; in experiment [12], 50%; in the experiment with Podosphaera fuliginea [14], 90%.

Consider `COC(c1cc(C)no1)c1ccccc1Oc1ccccc1` (stereo not drawn), for which the Activity (in the experiment on Botrytis cinerea; in experiment [12]) was 50% each time.

For `COC(c1cc(C)no1)c1ccccc1Oc1ncc(C(F)(F)F)cc1Cl` (stereo not drawn), the Activity (in the experiment with Botrytis cinerea; in [12]) was 50% each time.

With `COC(c1cc(C)no1)c1ccccc1Oc1cc(Oc2ccccc2C#N)ncn1` (stereo not drawn), the Activity was 50% in the experiment on Botrytis cinerea, 50% in experiment [12] and 90% with Podosphaera fuliginea [14].

On to `COC(c1cc(C)no1)c1ccccc1COc1ccccc1C` (stereo not drawn), for which the Activity with Botrytis cinerea was 50%; in [12] it was 50%; with Podosphaera fuliginea [10], 90%.

Take `COC(c1cc(C)no1)c1ccccc1/C=C/c1ccc(Cl)cc1` (stereo not drawn): the Activity is 50% in the experiment with Botrytis cinerea, 50% in experiment [12] and 90% with Podosphaera fuliginea [14].

As to `COC(c1cc(C)no1)c1ccccc1COc1ccc(C(F)(F)F)cn1` (stereo not drawn), the Activity in the experiment on Botrytis cinerea came to 50%; in experiment [12], 50%; with Podosphaera fuliginea [13], 90%.

Regarding `COC(c1cc(C)no1)c1ccccc1COc1ncc(C(F)(F)F)cc1Cl` (stereo not drawn), the Activity with Botrytis cinerea is listed as 50%; in experiment [12], 50%; in the experiment with Podosphaera fuliginea [10] it was 90%.

As for `COC(c1cc(C)no1)c1ccccc1CO/N=C(\C)c1ccc(Cl)cc1` (stereo not drawn), the Activity in the experiment on Botrytis cinerea is on record as 50%; in experiment [12], 50%; in the experiment on Podosphaera fuliginea [10], 90%.

`COC(c1cc(C)no1)c1ccccc1CO/N=C(\SC)c1ccc(Cl)cc1` (stereo not drawn): the Activity with Botrytis cinerea was 50%; in [12], 50%; in the experiment with Podosphaera fuliginea [13], 90%.

Turning to `COC(c1cc(C)no1)c1ccccc1/C=N/OC(C)c1ccc(Cl)cc1` (stereo not drawn), the Activity is reported as 50% in the experiment on Botrytis cinerea, 50% in experiment [12] and 90% in the experiment with Podosphaera fuliginea [5].

As for `COC(c1cc(C)no1)c1ccccc1/C=N/N=C(\C)c1ccc(Cl)cc1` (stereo not drawn), the mortality at 250 ppm with Myzus persicae [4] turned out to be 2%. For the same molecule, the Activity in the experiment on Botrytis cinerea was determined as 50%; with Podosphaera fuliginea [5], 90%; in experiment [6], 50%. Moreover, the mortality at 15.6 ppm in the experiment on Myzus persicae [7] was 0%. In addition, the mortality at 62.5 ppm with Myzus persicae [8] came to 1%.

In the case of `COC(c1cc(C)no1)c1ccccc1/C=N/N=C(\C)c1ccccc1` (stereo not drawn), the Activity in experiment [12] was found to be 50%; in the experiment with Podosphaera fuliginea [14], 90%.

As to `COC(c1cc(C)no1)c1ccccc1/C=N/N=C(\C)c1ccccc1Cl` (stereo not drawn), the results for the Activity (in experiment [12]; in the experiment with Podosphaera fuliginea [14]) were 50% and 90%, respectively.

Consider `CC(C)C(C(=O)OC(C#N)c1cccc(Oc2ccccc2)c1)c1ccc(OC(F)F)cc1` (stereo not drawn) [FLUCYTHRINATE], for which, in the experiment with Myzus persicae [4], the mortality at 250 ppm came to 3%. The mortality at 15.6 ppm in the experiment on Myzus persicae [7] was 3%. In the experiment with Myzus persicae [8], the mortality at 62.5 ppm stood at 3%.

Consider `CNC(=O)/C(=N/OC)c1ccccc1Oc1ccccc1` [METOMINOSTROBIN], for which the Activity in the experiment with Podosphaera fuliginea [1] is 40%; in the experiment on Podosphaera fuliginea [2] it was 0%; in experiment [3], 70%; in the experiment on Podosphaera fuliginea [5], 70%; in experiment [6], 60%; in experiment [9], 97%. The Activity in the experiment on Podosphaera fuliginea [10] amounted to 100%; in experiment [11] it was 40%.
